Results: the supplement of paper PMC10307832

Legend:
Experiment in all cases: relative viability (nuclei count vs DMSO), 5 days (fraction); higher = more cells survive
[1] = compound: CC1CC(=O)N(C2=CN=C(N=C2N1C3CCCC3)NC4=C(C=C(C=C4)C(=O)NC5CCN(CC5)C)OC)C [NPK76-II-72-1] + CC1(C)CCC(c2ccc(Cl)cc2)=C(CN2CCN(c3ccc(C(=O)NS(=O)(=O)c4ccc(N[C@H](CCN5CCOCC5)CSc5ccccc5)c(S(=O)(=O)C(F)(F)F)c4)cc3)CC2)C1 [Navitoclax] (partner 0.5 µM)
Outline: (§1)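 Values are medians from duplicate plates. Each reflects relative viability, defined as the nuclei count of treated wells over that of vehicle wells. Lung cancer cell lines in 1536-well plates were pin-tool dosed one day after seeding with one drug alone or with a fixed anchor-drug dose plus five library-drug doses (not always all listed) in √10 steps, then fixed, stained and imaged at 4× after 5 days.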

[2] = compound: CC1CC(=O)N(C2=CN=C(N=C2N1C3CCCC3)NC4=C(C=C(C=C4)C(=O)NC5CCN(CC5)C)OC)C [NPK76-II-72-1] + CS(=O)(=O)CCNCc1ccc(-c2ccc3ncnc(Nc4ccc(OCc5cccc(F)c5)c(Cl)c4)c3c2)o1 [Lapatinib] (partner 2 µM)
Outline: as §1

[3] = compound: CC[C@@H]1C(=O)N(C)c2cnc(Nc3ccc(C(=O)NC4CCN(C)CC4)cc3OC)nc2N1C1CCCC1 [BI-2536] + CCNC(=O)c1noc(-c2cc(C(C)C)c(O)cc2O)c1-c1ccc(CN2CCOCC2)cc1 [Luminespib] (partner 0.01 µM)
Outline: as §1

[4] = compound: CC[C@@H]1C(=O)N(C)c2cnc(Nc3ccc(C(=O)NC4CCN(C)CC4)cc3OC)nc2N1C1CCCC1 [BI-2536] + Cc1nc(Nc2ncc(C(=O)Nc3c(C)cccc3Cl)s2)cc(N2CCN(CCO)CC2)n1 [Dasatinib] (partner 0.075 µM)
Outline: as §1

| Cell Line | relative viability ([1]; first compound 0.01 µM) | relative viability ([1]; first compound 0.03162 µM) | relative viability ([1]; first compound 0.1 µM) | relative viability ([1]; first compound 0.3162 µM) | relative viability ([1]; first compound 1 µM) | relative viability ([2]; first compound 0.01 µM) | relative viability ([2]; first compound 0.03162 µM) | relative viability ([2]; first compound 0.1 µM) | relative viability ([2]; first compound 0.3162 µM) | relative viability ([2]; first compound 1 µM) | relative viability ([3]; first compound 0.01 µM) | relative viability ([3]; first compound 0.03162 µM) | relative viability ([3]; first compound 0.1 µM) | relative viability ([3]; first compound 0.3162 µM) | relative viability ([3]; first compound 1 µM) | relative viability ([4]; first compound 0.01 µM) | relative viability ([4]; first compound 0.03162 µM) | relative viability ([4]; first compound 0.1 µM) | relative viability ([4]; first compound 0.3162 µM) | relative viability ([4]; first compound 1 µM) |
| --- | --- | --- | --- | --- | --- | --- | --- | --- | --- | --- | --- | --- | --- | --- | --- | --- | --- | --- | --- | --- |
| NCI-H2228 | 0.509 | 1.06 | 1.14 | 0.794 | 0.932 | 0.88 | 1.04 | 1.13 | 1.15 | 0.874 | 0.161 | 0.179 | 0.183 | 0.145 | 0.124 | 0.448 | 0.372 | 0.116 | 0.0877 | 0.0886 |
| HOP-62 | 0.973 | 1.12 | 0.947 | 1.06 | 0.954 | 1.08 | 0.958 | 1.02 | 0.911 | 1.22 | 0.949 | 0.84 | 0.419 | 0.121 | 0.188 | 0.618 | 0.665 | 0.515 | 0.173 | 0.167 |
| HARA | 1.12 | 1.14 | 1.13 | 1.08 | 1.15 | 0.762 | 0.806 | 0.578 | 0.722 | 0.713 | 0.784 | 1.46 | 0.148 | 0.0637 | 0.0578 | 0.265 | 0.287 | 0.328 | 0.058 | 0.0777 |
| NCI-H838 | 1.11 | 1.19 | 1.19 | 1.09 | 1.11 | 0.951 | 1.08 | 1.05 | 0.971 | 1.09 | 0.357 | 0.307 | 0.146 | 0.125 | 0.114 | 0.281 | 0.291 | 0.235 | 0.134 | 0.164 |
| NCI-H1755 | 0.942 | 1.01 | 0.953 | 0.989 | 1.02 | 0.958 | 0.978 | 0.994 | 1.02 | 1.11 | 0.291 | 0.416 | 0.298 | 0.283 | 0.327 | 0.452 | 0.391 | 0.271 | 0.195 | 0.198 |
| NCI-H322M | 1.19 | 1.2 | 1.18 | 1.24 | 1.32 | 0.515 | 0.636 | 0.597 | 0.612 | 0.557 | 0.844 | 0.509 | 0.439 | 0.409 | 0.303 | 0.286 | 0.248 | 0.259 | 0.361 | 0.288 |
| NCI-H3122 | 1.01 | 0.988 | 1 | 1.05 | 1.02 | 1.02 | 1.03 | 0.966 | 1.1 | 1.04 | 0.11 | 0.0932 | 0.107 | 0.0899 | 0.0757 | 0.813 | 0.878 | 0.158 | 0.0979 | 0.104 |
| COR-L23 | 0.823 | 0.969 | 0.92 | 0.995 | 1.03 | 0.879 | 1.02 | 1.02 | 1.03 | 0.929 | 0.668 | 0.705 | 0.171 | 0.106 | 0.122 | 0.459 | 0.491 | 0.117 | 0.107 | 0.0593 |
